Data on 19 compounds can be found in US20070149525A1, “Methods of treating amyloidosis using aryl-cyclopropyl derivative aspartyl protease inhibitors” (priority 2005, published 2007).

Where “and” joins values, the source holds several entries; their conditions need not be identical. Equal entries are not always repeated. Where two headings read alike, the source gives them in different places.

The subject of series [1] is beta-secretase (BACE) versus cathepsin D (catD). The series is described as follows: CatD/BACE selectivity (ratio of IC50 values). The following applies: each value average of four experimental runs; multiple values = more than one experiment. The series is classed as biochemical. The method, then:
Investigation of potential beta-secretase inhibitors produced compounds with increased selectivity for beta-secretase over other aspartyl proteases such as cathepsin D (catD), cathepsin E (catE), Human Immunodeficiency Viral (HIV) protease, and renin. Selectivity was calculated as a ratio of inhibition (IC50) values in which the inhibition of beta-secretase was compared to the inhibition of other aspartyl proteases.
The compounds of formula (I) can be selective for beta-secretase versus catD.
In the following examples, each value is an average of four experimental runs and multiple values for one compound indicate that more than one experiment was conducted.

Series [2] deals with Madin-Darby Canine Kidney (MDCK) cells. Kind of series: In vitro permeability across MDCK cell monolayer. The series is classed as in vitro ADME. As to conditions: test compound 5 μM, 2 h at 37° C., apical to basolateral. The method, then:
(§1) Compounds were evaluated for permeability across a monolayer of Madin-Darby Canine Kidney (MDCK) cells in a transwell device following culturing for 4 days. […] A 0.5 mL of cell suspension (400,000 cells/mL) was placed on membrane and a 1.5 mL media in the bottom wells on day 1. On day 2 and day 3, cells were fed with new media. […] Media was removed from upper chambers and filled with mHBSS with or without CspA, and incubated 30 min at 37° C. with light shaking. Donor chambers were emptied, and filled with test compound at 5 μM in mHBSS. […] Plates were incubated for 2 h at 37° C. with shaking. After 2 h, both the donor and receiver wells were sampled. The bottom chambers were read in a fluorometer to assess LY leakage, and then the media from all wells were assayed by LC/MS/MS to determine compound levels.

Series [3] is described as follows: In vitro permeability across MDCK cell monolayer. The format is in vitro ADME, Canine. As to conditions: dog, test compound 5 μM, 2 h at 37° C., apical to basolateral, read-out: Permeability Forward A > B. The method, then: as §1
A short description of series [4]: Brain to plasma ratio in female FVB mice. The format is in vivo. As to conditions: 100 mpk dose.
A further series relates to P-gp. As to conditions: mdr1 a/b (-/-) and FVB wild-type, mouse, not told, iv, 2.5 mg/kg, 5 min. The method, then: Use of mdr1 (−/−) mouse and its FVB wild-type littermates, which expresses P-gp at their blood-brain barrier (BBB), can distinguish between a test compound of high P-gp liability from one with a more desirable low P-gp liability.
Test compounds are administered to both the mdr1 a/b (−/−) and the FVB wild-type mice (N=4/strain) intravenously at 2.5 mg/Kg through the tail vein. Plasma and brains are harvested at 5 min post administration. Test compound is extracted from tissue in parallel with calibration curves prepared from age-matched control tissues, then quantitated by LC/MS/MS. The ratio of brain concentration (Cb) to plasma concentration (Cp) is used as a measure of brain penetration according to the following formula: Brain Penetration (P)=Cb/Cp Therefore, a measure of brain penetration in the mdr1 (−/−) mouse relative to that of the wild-type animal represents an assessment of in vivo P-gp efflux, which is analogous to that determine in vitro with MDR1-MDCK cells. Calculations are made according to the following formula: Pmdr1/PFVB=In vivo Efflux

Take `CC(=O)NC(Cc1cc(F)cc(F)c1)C(O)CNC1(c2ccn(CC(C)(C)C)n2)CC1` (stereo not drawn) [Example 23.4, N-(1-(3,5-difluorophenyl)-3-hydroxy-4-(1-(1-neopentyl-1H-pyrazol-3-yl)cyclopropylamino)butan-2-yl)acetamide]: in series [1], the “Selectivity IC50 catD/IC50 BACE” value is on record as 3.5.
As to `CC(=O)NC(Cc1cc(F)cc(F)c1)C(O)CNC1(c2cnn(C(C)(C)C)c2)CC1` (stereo not drawn) [Example 23.5, N-(4-(1-(1-tert-butyl-1H-pyrazol-4-yl)cyclopropylamino)-1-(3,5-difluorophenyl)-3-hydroxybutan-2-yl)acetamide], the “Selectivity IC50 catD/IC50 BACE” value in series [1] is reported as 6.0.
For `CC(=O)NC(Cc1cc(F)cc(F)c1)C(O)CNC1(c2cc(O)cc(CC(C)(C)C)c2)CC1` (stereo not drawn) [Example 23.3, N-(1-(3,5-difluorophenyl)-3-hydroxy-4-(1-(3-hydroxy-5-neopentylphenyl)cyclopropylamino)butan-2-yl)acetamide], the “Selectivity IC50 catD/IC50 BACE” value in series [1] is 1.5.
The same measure, in the same setting: the same measure for `CC(=O)NC(Cc1cc(F)cc(F)c1)C(O)CNC1(c2cccc(C3CC4CCC3C4)c2)CC1` (stereo not drawn) [Example 23.1, N-(4-(1-(3-(bicyclo[2.2.1]heptan-2-yl)phenyl)cyclopropylamino)-1-(3,5-difluorophenyl)-3-hydroxybutan-2-yl)acetamide]: 3.4; for `CC(=O)NC(Cc1cc(F)cc(F)c1)C(O)CNC1(c2csc(C(C)(C)C)c2)CC1` (stereo not drawn) [Example 23.6, N-(4-(1-(5-tert-butylthiophen-3-yl)cyclopropylamino)-1-(3,5-difluorophenyl)-3-hydroxybutan-2-yl)acetamide]: 1.6 and 0.9.
In the case of `CC(=O)NC(Cc1cc(F)cc(F)c1)C(O)CNC1(c2cccc(-n3cccn3)c2)CC1` (stereo not drawn) [Example 23.27, N-(4-(1-(3-(1H-pyrazol-1-yl)phenyl)cyclopropylamino)-1-(3,5-difluorophenyl)-3-hydroxybutan-2-yl)acetamide], in series [2], the “Permeability Forward A > B” value was found to be 16.35 ×10⁻⁶ cm/s.
As to `CC(=O)NC(Cc1cc(F)cc(F)c1)C(O)CNC1(c2cccc(-n3cccn3)c2)CC1C(C)C` (stereo not drawn) [Example 23.54, N-(4-(1-(3-(1H-pyrazol-1-yl)phenyl)-2-isopropylcyclopropylamino)-1-(3,5-difluorophenyl)-3-hydroxybutan-2-yl)acetamide], the Papp A→B at 2 h, 5 μM in series [3] (MDCK) amounted to 11.4 ×10⁻⁶ cm/s. Further, in series [2], the “Permeability Forward A > B” value was 14.8 ×10⁻⁶ cm/s.
With `CCC1CC1(NCC(O)C(Cc1cc(F)cc(F)c1)NC(C)=O)c1cccc(-n2cccn2)c1` (stereo not drawn) [Example 23.55, N-(4-(1-(3-(1H-pyrazol-1-yl)phenyl)-2-ethylcyclopropylamino)-1-(3,5-difluorophenyl)-3-hydroxybutan-2-yl)acetamide], the Papp A→B at 2 h, 5 μM in series [3] (MDCK) stood at 18.4 ×10⁻⁶ cm/s. Moreover, the “Permeability Forward A > B” value in series [2] was 14.1 ×10⁻⁶ cm/s and 9.2 ×10⁻⁶ cm/s.
Take `CC(=O)NC(Cc1cc(F)cc(F)c1)C(O)CNC1(c2cccc(C(C)(C)C(F)F)c2)CC1` (stereo not drawn) [23.57]: the “Brain AUC (0-6 h)” value in series [4] was 57 µM·h. The Kp (commonly tissue or fluid exposure divided by exposure in the circulation) in series [4] (mouse, brain and plasma, 100 mg/kg, AUC (0-6 h)) was 0.7. The AUC(0-t) in series [4] (mouse, plasma, 100 mg/kg, read-out: Plasma AUC (0-6 h)) is 86 µM·h.
On to `O=C(Cc1nnn[nH]1)NC(Cc1cc(F)cc(F)c1)C(O)CNC1(c2cccc(-n3cccn3)c2)CC1` (stereo not drawn) [Example 23.8, N-(4-(1-(3-(1H-pyrazol-1-yl)phenyl)cyclopropylamino)-1-(3,5-difluorophenyl)-3-hydroxybutan-2-yl)-2-(1H-tetrazol-5-yl)acetamide], for which the “Selectivity IC50 catD/IC50 BACE” value in series [1] is recorded as 3.3.
For `CC(=O)NC(Cc1cc(F)cc(F)c1)C(O)CNC1(c2cccc(-n3cccn3)c2)CC1` (stereo not drawn) [Example 23.11, N-(4-(1-(3-(1H-pyrazol-1-yl)phenyl)cyclopropylamino)-1-(3,5-difluorophenyl)-3-hydroxybutan-2-yl)acetamide], the “Permeability Forward A > B” value in series [2] is 12.21 ×10⁻⁶ cm/s and 18.32 ×10⁻⁶ cm/s.
Still for that read-out and setting: the result for `CC(=O)NC(Cc1cc(F)cc(F)c1)C(O)CNC1(c2cccc(-n3cccn3)c2)CC1` (stereo not drawn) [Example 23.18, N-(4-(1-(3-(1H-pyrazol-1-yl)phenyl)cyclopropylamino)-1-(3,5-difluorophenyl)-3-hydroxybutan-2-yl)acetamide] reads 8.78 ×10⁻⁶ cm/s; that for `CC(=O)NC(Cc1cc(F)cc(F)c1)C(O)CNC1(c2cccc(-n3cccn3)c2)CC1` (stereo not drawn) [Example 23.12, N-(4-(1-(3-(1H-pyrazol-1-yl)phenyl)cyclopropylamino)-1-(3,5-difluorophenyl)-3-hydroxybutan-2-yl)acetamide], 16.29 ×10⁻⁶ cm/s.
Regarding `CNCC[C@@H](Oc1ccccc1C)c1ccccc1` [atomoxetine], in the series with P-gp, the “in vivo P-gp efflux (Pmdr1/PFVB)” value was determined as 1.17.
For the compound `O=C(O)CCCC(=O)NC(Cc1cc(F)cc(F)c1)C(O)CNC1(c2cccc(-n3cccn3)c2)CC1` (stereo not drawn) [Example 23.9, 4-(4-(1-(3-(1H-pyrazol-1-yl)phenyl)cyclopropylamino)-1-(3,5-difluorophenyl)-3-hydroxybutan-2-ylcarbamoyl)butanoic acid], in series [1], the “Selectivity IC50 catD/IC50 BACE” value was found to be 2.6.
Still for that read-out and setting: the same measure for `CC(=O)NC(Cc1cc(F)cc(F)c1)C(O)CNC1(c2cccc(C(C)C(F)(F)F)c2)CC1` (stereo not drawn) [Example 23.7, N-(1-(3,5-difluorophenyl)-3-hydroxy-4-(1-(3-(1,1,1-trifluoropropan-2-yl)phenyl)cyclopropylamino)butan-2-yl)acetamide]: 1.7.
In the case of `CC(=O)NC(Cc1cc(F)cc(F)c1)C(O)CNC1(c2cccc(C(C)C(F)(F)F)c2)CC1` (stereo not drawn) [Example 23.28, N-(1-(3,5-difluorophenyl)-3-hydroxy-4-(1-(3-(1,1,1-trifluoropropan-2-yl)phenyl)cyclopropylamino)butan-2-yl)acetamide], the Papp A→B at 2 h, 5 μM in series [3] (MDCK) is 12.6 ×10⁻⁶ cm/s. Moreover, the “Permeability Forward A > B” value in series [2] worked out at 19.62 ×10⁻⁶ cm/s.
For the compound `CC(=O)NC(Cc1cc(F)cc(F)c1)C(O)CNC1(c2nc(CC(C)(C)C)cs2)CC1` (stereo not drawn) [Example 23.36, N-(1-(3,5-difluorophenyl)-3-hydroxy-4-(1-(4-neopentylthiazol-2-yl)cyclopropylamino)butan-2-yl)acetamide], in series [3], the Papp A→B at 2 h, 5 μM was 11.3 ×10⁻⁶ cm/s.
`CC(=O)NC(Cc1cc(F)cc(F)c1)C(O)CNC1(c2cccc(C3CCCC3)c2)CC1` (stereo not drawn) [Example 23.2, N-(4-(1-(3-cyclopentylphenyl)cyclopropylamino)-1-(3,5-difluorophenyl)-3-hydroxybutan-2-yl)acetamide]: the “Selectivity IC50 catD/IC50 BACE” value in series [1] was 13.0.
